Bounds are passed on as bounds.

In assay [1] the target is human ferroportin (SLC40A1) fused in frame with GFP, stably expressed in HEK293 cells (human) (UniProt Q9NP59). In words: cell-based or functional assay.
Assay [2] relates to ferroportin fused to green fluorescent protein. The settings on record: read-out: EC50 (50% of the maximal loss of fluorescence); cells incubated for 24 hours with graded concentrations; cited from earlier work.
Assay [3] addresses T1, ferroportin (Homo sapiens, UniProt Q9NP59).
T1 sequence (Q9NP59 1-571): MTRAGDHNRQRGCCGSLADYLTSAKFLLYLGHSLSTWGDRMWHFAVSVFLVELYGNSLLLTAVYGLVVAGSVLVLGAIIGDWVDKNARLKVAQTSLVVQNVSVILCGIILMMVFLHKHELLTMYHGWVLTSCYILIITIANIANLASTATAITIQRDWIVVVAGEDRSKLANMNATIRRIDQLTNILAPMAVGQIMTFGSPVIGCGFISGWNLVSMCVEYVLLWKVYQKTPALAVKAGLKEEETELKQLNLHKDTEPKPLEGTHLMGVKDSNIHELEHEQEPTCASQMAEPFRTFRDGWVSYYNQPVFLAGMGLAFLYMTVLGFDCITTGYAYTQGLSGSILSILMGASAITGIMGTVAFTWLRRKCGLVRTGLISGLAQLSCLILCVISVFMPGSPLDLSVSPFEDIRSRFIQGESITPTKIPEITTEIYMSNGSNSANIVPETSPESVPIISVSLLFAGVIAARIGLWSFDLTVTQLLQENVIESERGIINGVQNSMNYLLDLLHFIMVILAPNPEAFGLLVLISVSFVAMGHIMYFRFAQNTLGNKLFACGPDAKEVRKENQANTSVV
The assay is described as follows: FPN activity assay: internalization/degradation of ferroportin-GFP in stably transfected HEK293 cells, decrease in GFP fluorescence. The format is cell-based. Further details: expressed in transfected cells. The settings on record: HEK293 cells stably expressing ferroportin-GFP, at least 18 hours incubation; read-out: FPN EC50.

The target in assay [4] is T1, ferroportin. The assay is described as follows: T47D cell-based ferroportin internalization assay in presence of 0.5% mouse serum albumin (MSA), AF647-conjugated detection peptide, flow cytometry. Further details: a human breast carcinoma adherent cell line which endogenously expresses ferroportin; host or cells: T47D. The note with it: T47D cells, 1 hr incubation. The procedure: The potency of the peptides in causing ferroportin internalization was evaluated in a T47D cell-based assay. […] In this internalization assay, the potency of the test peptides was evaluated in presence of serum albumin which is the main protein component in the blood. T47D cells were maintained in RPMI media (containing required amount of fetal bovine serum) and regularly sub-cultured. In preparation for the assay, the cells were seeded in 96-well plates at a density of 80-100 k cells per well in 100 ul volume and allowed to rest overnight. On the next day, test peptides were first prepared in dilution series (10-point series, starting concentration of ˜5 μM, typically 3-4×fold dilution steps), all with 0.5% mouse serum albumin (MSA purified from mouse serum; Sigma, A3139). The test peptide dilution series were allowed to incubate at room temperature for 30 min. Then the media was aspirated from the 96-well cell plate and test peptide dilution series were added. After 1 hr incubation, the media with test peptides was aspirated out and AF647-conjugated detection peptide was added at fixed concentration of 200 nM. The AF647-conjugated detection peptide was previously verified to bind to ferroportin and cause its internalization. The cells were washed again after a 2 hr incubation in preparation for flow cytometry analysis. The Median Fluorescence Intensity (MFI) of the AF647-positive population was measured (after removing dead cells and non-singlets from the analysis). The MFI values were used to generate a dose-response curve and obtain IC50 potencies for the test peptides. The IC50 potencies were calculated by using 4-parameter non-linear fitting function in Graphpad Prism (Table 2A).
In general terms: Flow cytometry measures light scatter and fluorescence of single cells or particles in a stream.

“RI-Mini Hepcidin, Hy-DPhe-DIle-DCys-DIle-DPro-DPhe-DHis-DThr-DAsp-NH2 (peptide)” displayed a Potency EC50 (nM), FPN activity assay (ferroportin-GFP internalization/degradation, HEK293 cells) in assay [1] of more than 10000 nM. What is called EC50 is the concentration at which the effect is half-maximal. Turning to “Hy-DTHFPIC(1)IFC(2)C(3)GC(2)C(4)HRSKC(3)GMC(4)C(1)KT-OH [Hepcidin]”, the EC50 in assay [2] is 0.005 to 0.015 µM. In turn, Mini-Hepcidin 1-9, Hy-…-NH2 (peptide) yielded a Potency EC50 (nM), FPN activity assay (ferroportin-GFP internalization/degradation, HEK293 cells) in assay [1] of 712 nM. In general, IC50 refers to the point on the concentration scale where inhibition reaches its midpoint. As for `CC[C@H](C)[C@@H]1NC(=O)[C@@H](NC(=O)[C@@H]2CCCN2C(=O)[C@@H](NC(=O)[C@H](Cc2cnc[nH]2)NC(=O)[C@@H](NC(=O)[C@H](CC2N=NN=N2)NC(=O)CC(C)C)[C@@H](C)O)C(c2ccccc2)c2ccccc2)CSSC[C@@H](C(N)=O)NC(=O)[C@@H](CCCCN)NC(=O)C[C@H](Cc2ccccc2)NC(=O)[C@H](CCCCNC(=O)COCCOCCNC(=O)COCCOCCNC(=O)[C@H](CN)NC(=O)CCCCCCCCCCCCCCCCC(=O)O)NC1=O` [Compd 53, Isovaleric_Acid-[Tet1]-T-H-[Dpa]-P-[Cys]-I-[Lys(1PEG2_1PEG2_Dap_C18_Diacid)]-[bhphe]-[(D)Lys]-[Cys]-NH2], the DC50 at ferroportin [3] was in the range of 0.01 to 0.1 µM. Moreover, the half-inhibitory concentration (IC50) at ferroportin [4] lay within 0.01 to 0.1 µM.

The record behind these values is patent US20240226225A1 (Protagonist Therapeutics, Inc., priority 2021, published 2024).
